Laboratory results: US20130184272A1, “DIABETES THERAPEUTIC AGENT” (TAKEDA PHARMACEUTICAL COMPANY LIMITED, priority 2010, published 2013)
Values joined by “and” are separate entries in the source; they are usually repeats but may differ in a detail not shown here. Equal entries are not always repeated.

What was measured:
[1] = system: KLF15; test: Adipocyte-related gene expression level: KLF15; format: cell-based
Description: In the same manner as in Example 10, the cells were cultured, and total RNA was extracted using Rneasy96 kit (Qiagen) from the cell immediately before and 6 days after addition of […] of the compound of Reference Example 1. cDNA was prepared from the total RNA using TaqMan reverse transcription reagent (Applied Biosystems), quantitative PCR was performed by ABI PRISM7000 or 7000 using TaqMan Universal PCR master mix (Applied Biosystems) and commercially available primers, and the expression level of each gene was determined. The commercially available primers used were as follows. • C/EBPα (Mm00514283_s1, TaqMan Gene Expression Assays, Applied Biosystems) • C/EBPβ (Mm00843434_s1, TaqMan Gene Expression Assays, Applied Biosystems) • KLF15 (Mm00517792_m1, TaqMan Gene Expression Assays, Applied Biosystems) • PPARγ (Mm00440945_m1, TaqMan Gene Expression Assays, Applied Biosystems)
The expression level was amended by the amount of 36B4 (Takeda Pharmaceutical Company Limited) in the same manner as in Example 3, and the relative values to the value immediately before addition of each gene compound as 1 are shown in Table 16. The data in Table 16 show mean±standard deviation at n=3-4 (n is the number of samples).

[2] = system: C3H10T1/2 cells; test: Adipocyte differentiation suppressive action; format: cell-based; conditions: for cell number (number of nucleus/visual field) / lipid droplet area (lipid droplet stained area/cell number): DM, 9 days
Description: C3H10T1/2 cells (Dainippon Pharmaceutical Co., Ltd.) were cultured in a growth medium until confluence. 1 μM dexamethasone, 0.5 mM 3-isobutyl-1-methylxanthine and 5 μg/mL insulin were added to the medium, and the cells were cultured for 3 days. The medium was exchanged with a growth medium added with 4 μg/mL insulin and the cells were cultured for 3 more days and cultured in a growth medium for 3 days. When the compound was added, it was added for 9 days after reaching confluence and the cells were cultured. The cells were fixed with 3.7% formalin, lipid droplet was stained with 100 nM BODIPY 493/503 (Molecular Probes), nucleus was stained with 2 μM Hoechst33258 (Acros Organics), and analyzed by IN Cell analyzer (GE Healthcare). The data of Table 15 show mean±standard deviation at n=4 (n is the number of samples).

[3] = system: C2C12 cells; test: Action on muscle cell differentiation suppressed by TNF-α (creatine kinase activity); format: cell-based, Mouse; conditions: for creatine kinase activity (mIU/μg): TNF-a 30 ng/mL, 3 days
Description: • (1) In the same manner as in Example 1, C2C12 cells were cultured in a growth medium to not less than 90% confluence. • (2) The medium was exchanged with a differentiation medium, the compound of Reference Example 1 together with TNF-α were added, and the cells were cultured for 3 days. • (3) The cells were washed with PBS, 0.5% NP-40 solution was added, and the cells were lysed by freeze-thawing. The cell extract was centrifuged and the creatine kinase activity in the supernatant was measured as an index of muscle differentiation. The creatine kinase activity was measured using CPKII Test Wako (Wako Pure Chemical Industries, Ltd.) according to the manual of the kit.
The data in Table 9 show mean±standard deviation at n=3 (n is the number of samples).

Cc1ncccc1Oc1sc(C(N)=O)c2c1-c1c(cnn1C)CC2 [Ref. Ex. 1, 1-methyl-8-[(2-methylpyridin-3-yl)oxy]-4,5-dihydro-1H-thieno[3,4-g]indazole-6-carboxamide]
KLF15 expression level (amended by 36B4) ([1]; 10 μm [sic] of compound, 6 days after addition, value immediately before addition = 1): 1.4 ± 0.4 | expression level of KLF15 (in words) ([1]; C3H10T1/2 cell): decreased | cell number (number of nucleus/visual field) ([2]; compound 0.1 nM): 303 ± 28 | lipid droplet area (lipid droplet stained area/cell number) ([2]; compound 0.1 nM): 9625 | cell number (number of nucleus/visual field) ([2]; compound 1 nM): 295 ± 15 | lipid droplet area (lipid droplet stained area/cell number) ([2]; compound 1 nM): 5703 | cell number (number of nucleus/visual field) ([2]; compound 10 nM): 318 ± 9 | lipid droplet area (lipid droplet stained area/cell number) ([2]; compound 10 nM): 2010 | cell number (in words) ([2]; adipocyte differentiation): without affecting | intracellular lipid accumulation (in words) ([2]; adipocyte differentiation): decreased | creatine kinase activity decreased by TNF-α (in words) [3]: recovered | creatine kinase activity (mIU/μg) ([3]; compound 0 nM as printed): 0.12 mIU/μg and 0.15 mIU/μg | creatine kinase activity (mIU/μg) ([3]; compound 1 nM): 0.25 mIU/μg | creatine kinase activity (mIU/μg) ([3]; compound 3 nM): 0.39 mIU/μg
